Experimental data as given in patent US6632817B2, “Fluoromethoximino compounds” (priority 1997, dated 2003).

Key:
[1] = test system: Puccinia recondita; assay: Puccinia test (wheat)/protective; assay type: in vivo; details: Puccinia recondita, 240 h, protective, application rate 250 g/ha, evaluation 10 days after inoculation, read-out: Efficacy in %
Description: Puccinia Test (Wheat)/Protective
(§1) Solvent: 25 parts by weight of N,N-dimethylacetamide
(§2) Emulsifier: 0.6 part by weight of alkylaryl polyglycol ether
(§3) To produce a suitable preparation of active compound, 1 part by weight of active compound is mixed with the stated amounts of solvent and emulsifier, and the concentrate is diluted with water to the desired concentration.
To test for protective activity, young plants are sprayed with the preparation of active compound at the stated application rate. After the spray coating has dried on, the plants are sprayed with a conidia suspension of Puccinia recondita. The plants remain in an incubation cabin at 20° C. and 100% relative atmospheric humidity for 48 hours.
The plants are then placed in a greenhouse at a temperature of approximately 20° C. and a relative atmospheric humidity of 80% to promote the development of rust pustules.
(§4) Evaluation is carried out 10 days after the inoculation. 0% means an efficacy which corresponds to that of the control, whereas an efficacy of 100% means that no infection is observed.

[2] = test system: Venturia inaequalis; assay: Venturia test (apple)/protective; assay type: in vivo; details: Venturia inaequalis, 288 h, protective, application rate 10 g/ha, evaluation 12 days after inoculation, read-out: Efficacy in %
Description: Venturia Test (Apple)/Protective
(§5) Solvent: 47 parts by weight of acetone
(§6) Emulsifier: 3 parts by weight of alkylaryl polyglycol ether
as §3
To test for protective activity, young plants are sprayed with the preparation of active compound at the stated application rate. After the spray coating has dried on, the plants are inoculated with an aqueous conidia suspension of the causative organism of apple scab Venturia inaequalis and then remain in an incubation cabin at approximately 20° C. and 100% relative atmospheric humidity for 1 day.
The plants are then placed in a greenhouse at approximately 21° C. and a relative atmospheric humidity of approximately 90%.
Evaluation is carried out 12 days after the inoculation. 0% means an efficacy which corresponds to that of the control, whereas an efficacy of 100% means that no infection is observed.

[3] = test system: Plasmopara viticola; assay: Plasmopara test (grapevine)/protective; assay type: in vivo; details: Plasmopara viticola, 144 h, protective, application rate 100 g/ha, evaluation 6 days after inoculation, read-out: Efficacy in %
Description: Plasmopara Test (Grapevine)/Protective
as §5, §6, §3
To test for protective activity, young plants are sprayed with the preparation of active compound at the stated application rate. After the spray coating has dried on, the plants are inoculated with an aqueous spore suspension of Plasmopara viticola and then remain in an incubation cabin at approximately 20° C. and 100% relative atmospheric humidity for 1 day. The plants are subsequently placed in a greenhouse at approximately 21° C. and approximately 90% relative atmospheric humidity for 5 days. The plants are then moistened and placed in an incubation cabin for 1 day.
Evaluation is carried out 6 days after the inoculation. 0% means an efficacy which corresponds to that of the control, whereas an efficacy of 100% means that no infection is observed.

[4] = test system: Puccinia recondite; assay: Puccinia test (wheat)/curative; assay type: in vivo; details: curative, application rate 250 g/ha, evaluation 10 days after inoculation
Description: Puccinia Test (Wheat)/Curative
as §1, §2, §3
To test for curative activity, young plants are sprayed with a conidia suspension of Puccinia recondite. The plants remain in an incubation cabin at 20° C. and 100% relative atmospheric humidity for 48 hours. The plants are subsequently sprayed with the preparation of active compound at the stated application rate.
The plants are placed in a greenhouse at a temperature of approximately 20° C. and a relative atmospheric humidity of approximately 80% to promote the development of rust pustules.
as §4

[5] = logP determination by HPLC (EEC Directive 79/831 Annex V. A8); assay type: physicochemical; details: HPLC gradient method, acetonitrile/0.1% aqueous phosphoric acid
Description: The logP values are determined in accordance with EEC Directive 79/831 Annex V. A8 by HPLC (gradient method, acetonitrile/0.1% aqueous phosphoric acid).

| melting point | chromatographic logP [5] | Compound | pest or weed control at 250 g/ha [1] | pest or weed control at 10 g/ha [2] | pest or weed control at 100 g/ha [3] | Efficacy in % [4] |
| --- | --- | --- | --- | --- | --- | --- |
| 153 to 155 °C | – | COC(=O)C(=NOCF)c1ccccc1Oc1ncnc(Oc2ccccc2Cl)c1F [Example 1, methyl {2-[6-(2-chlorophenoxy)-5-fluoropyrimidin-4-yloxy]-phenyl}-fluoromethoxyimino-acetate] | ≥ 80% | ≥ 99% | ≥ 98% | – |
| 128 to 129 °C | – | CNC(=O)C(=NOCF)c1ccccc1Oc1ncnc(Oc2ccccc2Cl)c1F [Example 2, 2-{2-[6-(2-chlorophenoxy)-5-fluoropyrimidin-4-yloxy]-phenyl}-2-fluoromethoxyimino-N-methylacetamide] | ≥ 80% | ≥ 99% | ≥ 98% | 100% |
| – | 3.5 | CNC(=O)/C(=N\OCF)c1ccccc1Oc1ncnc(Oc2cccc(Cl)c2C)c1F [Example 4] | – | ≥ 99% | ≥ 98% | 100% |
| – | 2.9 | CNC(=O)/C(=N\OCF)c1ccccc1Oc1ncnc(Oc2ccccc2OC(F)F)c1F [Example 6] | ≥ 80% | ≥ 99% | ≥ 98% | 100% |
| – | 2.8 | CNC(=O)/C(=N\OCF)c1ccccc1Oc1ncnc(Oc2ccccc2C#N)c1F [Example 10] | ≥ 80% | – | ≥ 98% | 100% |
| – | 3.7 | CNC(=O)/C(=N\OCF)c1ccccc1Oc1nc(-c2ccc(C(F)(F)F)cc2)ns1 [Example 19] | ≥ 80% | ≥ 99% | ≥ 98% | – |
| – | 3.8 | CNC(=O)/C(=N\OCF)c1ccccc1Oc1nc(-c2ccc(OC(F)(F)F)cc2)ns1 [Example 22] | ≥ 80% | ≥ 99% | ≥ 98% | 100% |
| – | 3.2 | CNC(=O)/C(=N\OCF)c1ccccc1Oc1nc(-c2ccc(OC(F)F)cc2)ns1 [Example 26] | ≥ 80% | ≥ 99% | ≥ 98% | – |
| – | 3.6 | CNC(=O)/C(=N\OCF)c1ccccc1Oc1nc(-c2cccc(C(F)(F)F)c2)ns1 [Example 28] | ≥ 80% | ≥ 99% | ≥ 98% | 100% |
| – | – | CNC(=O)C(=NOCF)c1ccccc1Oc1ncnc(Oc2ccccc2Cl)c1F [drawing 98] | – | – | – | 100% |
| – | – | CNC(=O)/C(=N\OCF)c1ccccc1Oc1ncnc(Oc2cccc(Cl)c2C)c1F [drawing 99] | – | – | – | 100% |
| – | – | CNC(=O)/C(=N\OCF)c1ccccc1Oc1ncnc(Oc2ccccc2OC(F)F)c1F [drawing 100] | – | – | – | 100% |
| – | – | CNC(=O)C(NOCF)c1ccccc1Oc1ncnc(Oc2ccccc2[N+](=O)[O-])c1F (stereo not drawn) [drawing 101] | – | – | – | 100% |
| – | – | CNC(=O)/C(=N\OCF)c1ccccc1Oc1ncnc(Oc2ccccc2C#N)c1F [drawing 102] | – | – | – | 100% |
| – | – | CNC(=O)/C(=N\OCF)c1ccccc1Oc1nc(-c2cccc(C(F)(F)F)c2)ns1 [drawing 103] | – | – | – | 100% |
| – | – | CNC(=O)/C(=N\OCF)c1ccccc1Oc1nc(-c2ccc(OC(F)(F)F)cc2)ns1 [drawing 104] | – | – | – | 100% |
| – | – | CNC(=O)/C(=N\OCF)c1ccccc1Oc1ncnc(Oc2ccccc2Cl)c1F [drawing 105] | – | – | – | 100% |
